Legend:
human A2B receptor = target: T1, human A2B receptor (Homo sapiens, UniProt P29275); experiment: Functional A2B receptor activity, recombinant HEK293 cells, cAMP (HTRF), agonist NECA; type: cell-based; conditions: read-out: Functional A2B receptor activity, HEK293, cAMP, IC50
T1 construct: expressed in transfected cells; host or cells: HEK293
T1 sequence (P29275 1-332): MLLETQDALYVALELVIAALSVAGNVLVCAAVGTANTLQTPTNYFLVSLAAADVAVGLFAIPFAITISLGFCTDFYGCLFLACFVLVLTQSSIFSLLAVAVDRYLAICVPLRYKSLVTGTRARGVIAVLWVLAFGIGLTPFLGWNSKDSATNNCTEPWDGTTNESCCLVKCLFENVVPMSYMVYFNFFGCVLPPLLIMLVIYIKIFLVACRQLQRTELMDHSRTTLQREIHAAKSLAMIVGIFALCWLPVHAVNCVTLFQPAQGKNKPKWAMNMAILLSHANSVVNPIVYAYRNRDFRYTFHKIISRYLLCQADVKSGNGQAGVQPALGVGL
In short: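 Cellular cAMP measured by HTRF after 30 min incubation of cells with forskolin, test compounds and agonist. Data normalized to inhibitor control and DMSO neutral control, then curve-fitted.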

human A1 receptor = target: T2, human A1 receptor (Homo sapiens, UniProt P30542); experiment: Functional A1 receptor activity, recombinant CHO cells, cAMP (HTRF), forskolin, agonist CPA; type: cell-based; conditions: recombinant CHO cells, forskolin, agonist CPA; read-out: Functional A1 receptor activity, CHO, cAMP, IC50
T2 construct: expressed in transfected cells; host or cells: CHO
T2 sequence (P30542 1-326): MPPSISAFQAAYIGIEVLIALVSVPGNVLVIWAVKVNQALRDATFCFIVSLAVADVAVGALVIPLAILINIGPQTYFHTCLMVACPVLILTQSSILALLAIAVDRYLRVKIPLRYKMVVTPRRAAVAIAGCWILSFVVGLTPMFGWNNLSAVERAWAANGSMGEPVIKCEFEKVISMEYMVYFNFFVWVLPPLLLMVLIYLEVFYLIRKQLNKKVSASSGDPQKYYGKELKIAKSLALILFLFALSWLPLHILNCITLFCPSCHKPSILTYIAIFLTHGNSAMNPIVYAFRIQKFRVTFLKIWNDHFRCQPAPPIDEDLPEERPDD
In short: (§1)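 Recombinant CHO cells expressing A1 or A3 receptor (Gi-coupled) were stimulated with forskolin together with test compound and agonist (CPA for A1, IB-MECA for A3), incubated 30 min, then cellular cAMP was read by HTRF. Data were normalized to inhibitor control and DMSO neutral control, then curve-fitted.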

human A3 receptor = target: T3, human A3 receptor (Homo sapiens, UniProt P0DMS8); experiment: Functional A3 receptor activity, recombinant CHO cells, cAMP (HTRF), forskolin, agonist IB-MECA; type: cell-based; conditions: recombinant CHO cells, forskolin, agonist IB-MECA; read-out: Functional A3 receptor activity, CHO, cAMP, IC50
T3 construct: expressed in transfected cells; host or cells: CHO
T3 sequence (P0DMS8 1-318): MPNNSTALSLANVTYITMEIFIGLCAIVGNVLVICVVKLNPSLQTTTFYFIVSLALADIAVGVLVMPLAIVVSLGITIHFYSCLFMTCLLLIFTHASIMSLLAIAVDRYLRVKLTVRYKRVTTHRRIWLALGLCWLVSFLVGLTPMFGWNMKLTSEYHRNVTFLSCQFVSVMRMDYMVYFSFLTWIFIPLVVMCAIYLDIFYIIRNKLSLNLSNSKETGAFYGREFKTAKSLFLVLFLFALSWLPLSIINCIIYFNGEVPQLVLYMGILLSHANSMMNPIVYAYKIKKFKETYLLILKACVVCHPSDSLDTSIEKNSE
In short: as §1

[1] = Pharmacokinetic properties in mouse after single intravenous and oral administration; type: in vivo
Experimental: The objective of the study was to obtain information on the pharmacokinetic properties of the compounds of the present invention in female Wistar rats/mice following single intravenous and oral administration.
Female Wistar rats/mice (n=6) received either a single intravenous (bolus) injection or an oral administration (by gavage) of the tested compound. Doses of 0.2 and 10 mg/kg (per compound) were given intravenously and per os, respectively, as a solution in DMSO (0.2%)/PEG 200 (40%)/water for iv administration and as a suspension in Methocel (0.5%)/Tween 20 (0.25%) in water for oral dosing. Consecutive blood samples were taken sub-lingually under isoflurane inhalation from 3 animals per route of administration after 0.1 (only iv), 0.25 (only po), 0.5, 1, 2, 4, 6 and 24 h and were further processed to obtain plasma. Also, urine and feces samples of 3 rats per route of administration were collected over the time interval from 0-24 h and were pooled for analysis.
The concentrations of the compounds in plasma, feces were quantified using an UPLC method with tandem mass spectrometric detection (LC-MS/MS) previously developed at the ‘Institute of Drug Metabolism and Pharmacokinetics’. The LCMS/MS system consisted of a Waters Acquity UPLC coupled to an AB Sciex mass spectrometer API 5500 Q-trap. The UPLC separation was carried out on a reversed phase column (HSS T3, […], 2.1×50 mm) using a mobile phase gradient with 0.1% formic acid and acetonitrile as eluents. The detection of the compounds was performed using multiple reaction monitoring in the positive ionization mode. Plasma samples were spiked with internal standard (20 μl) and the analyte was extracted from the matrix using tertiary-butyl methyl ether (tBME). The organic phase was evaporated to dryness under a stream of nitrogen. The residue was dissolved in acetonitrile/0.1% formic acid for LC-MS/MS analysis. Feces samples were homogenized with 4-times their volume of an ethanol/water mixture (4:1, v/v). Aliquots of the aqueous-ethanolic extracts were spiked with internal standard, diluted with acetonitrile/water (1:1, v/v) and directly injected into the LC-MS/MS system.
Pharmacokinetic parameters Cmax and tmax were taken from the observed data. […] AUC values were calculated by non-compartmental analysis using the linear up/log down method. Numerical data for mean plasma concentrations and derived pharmacokinetic parameters were rounded to 3 significant digits for presentation.

human A2A receptor = human A2A receptor (Homo sapiens, UniProt P29274); experiment: Human T cells, endogenous A2A receptor, cAMP, agonist NECA; type: cell-based; conditions: read-out: hTcell data, cAMP, IC50
In short: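 Pan T cells isolated from fresh human blood PBMC, endogenously expressing Gs-coupled A2A, treated with compounds. Cellular cAMP measured by HTRF after 1 h; data normalized to inhibitor control and DMSO neutral control, then curve-fitted.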

human T cells = experiment: hTcell data, IL-2 (human T cells, IL-2 readout; method not given); type: cell-based; conditions: compounds of the present invention

Chain of human A2A receptor (P29274 whole entry): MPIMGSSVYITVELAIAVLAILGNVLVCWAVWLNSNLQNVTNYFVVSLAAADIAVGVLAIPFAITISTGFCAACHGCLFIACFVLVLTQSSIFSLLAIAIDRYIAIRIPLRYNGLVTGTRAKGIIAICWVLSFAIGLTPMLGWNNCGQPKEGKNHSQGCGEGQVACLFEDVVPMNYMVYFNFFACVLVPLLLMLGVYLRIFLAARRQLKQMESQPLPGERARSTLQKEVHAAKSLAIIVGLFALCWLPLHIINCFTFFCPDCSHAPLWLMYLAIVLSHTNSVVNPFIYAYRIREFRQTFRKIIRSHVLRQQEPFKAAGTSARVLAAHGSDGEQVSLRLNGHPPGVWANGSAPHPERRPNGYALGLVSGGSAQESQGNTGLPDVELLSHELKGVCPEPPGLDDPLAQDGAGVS

IC50 (human A2B receptor): < 10 nM
IC50 (human A1 receptor): > 1000 nM
IC50 (human A3 receptor): > 1000 nM
Feces iv ([1]; @0.2 (mg/kg), % of dose excreted in feces): 22@0.2%
clearance ([1]; female, plasma, 0.2 mg/kg): 77.5 mL/min/kg
Cmax ([1]; female, plasma, 0.2 mg/kg, dose-normalized to 1 mg/kg): 500 ng/mL
Vd ([1]; female, plasma, 0.2 mg/kg, read-out: Vss): 3.16 L/kg
half-life ([1]; female, plasma, 0.2 mg/kg, read-out: t½ (converted)): 54.6 min
IC50 (human A2A receptor): < 10 nM
IC50 (human T cells): < 10 nM
SMILES: COc1ncc(C2=CCOCC2)c2sc(NC(=O)N3CC[C@@]4(CCCOC4)C3)nc12 [Compound 25, (S)-7-Oxa-2-aza-spiro[4.5]decane-2-carboxylic acid [7-(3,6-dihydro-2H-pyran-4-yl)-4-methoxy-thiazolo[4,5-c]pyridin-2-yl]-amide]

From patent publication US12344623B2, “Thiazolopyridine derivatives as adenosine receptor antagonists” (Merck Patent GmbH, priority 2019, dated 2025)
